{"source": "patent US10669287B2", "about": "“Curcumin-boron complex and pharmaceutical containing same” (JAPAN SCIENCE AND TECHNOLOGY AGENCY, priority 2016, dated 2020)", "key": {"Aβ1-42 [1]": {"target": "T1, Aβ1-42 (Homo sapiens, UniProt P05067)", "T1 construct": "phosphate buffer (pH 7.4)/cell culture solution (containing 0.1% horse serum) (1:3) containing Aβ1-42 (10 μM)", "T1 sequence (P05067 672-713)": "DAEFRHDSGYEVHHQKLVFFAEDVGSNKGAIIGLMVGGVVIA", "assay": "In vitro oxygenation experiment using Aβ1-42 as a substrate (MALDI-TOF MS), Test Example 1", "assay_type": "biochemical", "conditions": "test compound 1 μM, Aβ1-42 10 μM, LED irradiation at 730 nm, 37° C.", "experimental": "An in vitro oxygenation experiment using Aβ1-42 as a substrate was conducted to confirm that each of the inventive compounds actually have Aβ oxygenation activity. A test compound (1 μM in each case) was added to phosphate buffer (pH 7.4)/cell culture solution (containing 0.1% horse serum) (1:3) containing Aβ1-42 (10 μM), and incubated under LED irradiation (wavelength: 660 nm, 730 nm) at 37° C., and then the reaction was tracked by using a mass spectrometer (MALDI-TOF MS). The native Aβ1-42 and the Na^+ adduct were mainly observed before light irradiation. After light irradiation, an ion peak indicating the presence of the oxygenated form was observed over time (FIG. 1, FIG. 2)."}, "PC 12 cells [2]": {"test_system": "PC 12 cells", "assay": "Cytotoxicity under light irradiation, WST-8 cell viability, Test Example 2", "assay_type": "cell-based, rat", "conditions": "LED 660 nm, 10 mW, 5 minutes, then 48 hours", "protocol": "A culture medium for rat adrenal medulla-derived pheochromocytoma PC 12 cells (purchased from RIKEN, Japan) seeded on a poly-D-lysine-coated 96-well plate was replaced with 75 μL of a Dulbecco's modified Eagle's medium containing 0.1% horse serum, and the culture was incubated in a 5% CO2 atmosphere at 37° C. for 1 day, and 25 μL of a phosphate buffer saline (pH 7.4) containing a inventive compound was then added thereto. Thereafter, the mixed solution was incubated under LED irradiation (wavelength: 660 nm, 10 mW) (without light irradiation for dark) at 37° C. for 5 minutes. Further, the cell culture plate containing the reaction solution was incubated in a 5% CO2 atmosphere at 37° C. for 48 hours. Finally, the Cell Count Reagent SF (10 μL: purchased from NACALAI TESQUE, INC.) containing WST-8 was added, and the culture was incubated in a 5% CO2 atmosphere at 37° C. for 3 hours, and thereafter the cell viability was determined from the absorbance at 450 nm (reference wavelength: 655 nm)."}, "[3]": {"assay": "Oxygenation of benzoylmethionine in glycerol/water (LC/MS), Test Example 4", "conditions": "compound 2 μM, benzoylmethionine 2000 μM, glycerol/water 0:100 to 50:50, LED 730 nm, room temperature", "experimental": "The compound K (2 μM) was added to glycerol/water (0:100, 10:90, 30:70, 50:50) dissolving benzoylmethionine (2000 μM) therein, and the resultant was subjected to LED irradiation (wavelength: 730 nm) at room temperature, and thereafter the reaction was tracked by using LC/MS (ESI-Q)."}, "[4]": {"assay": "Stability of catalyst in neutral phosphate buffer without or under light irradiation (HPLC), Test Example 5", "assay_type": "physicochemical", "conditions": "under light irradiation (660 nm)", "experimental": "A neutral phosphate buffer containing a catalyst was incubated without light irradiation or under light irradiation (660 nm), and thereafter ethanol containing benzyl alcohol (as an internal standard) was added thereto, and analysis was performed by using HPLC."}, "Aβ1-42 [5]": {"target": "T1, Aβ1-42", "assay": "Degree of oxygenation of pre-aggregated Aβ1-42 (MALDI-TOF MS), Test Example 10", "assay_type": "biochemical", "conditions": "pre-aggregated Aβ1-42 20 μM, catalyst 2 μM, phosphate buffer pH 7.4, 660 nm, 37° C., 30 minutes", "experimental": "Aβ1-42 isopeptide (concentration: 250 μM in 0.1% aqueous solution of trifluoroacetic acid), angiotensin IV (200 μM aqueous solution), Met-enkephalin (200 μM aqueous solution), and somatostatin (200 μM aqueous solution) were added to a phosphate buffer or phosphate buffer saline (pH 7.4) (with 0.1 M aqueous solution of sodium hydroxide, as necessary) so that a final peptide concentration of 20 μM or 40 μM (pH 7.4) was reached. Before being subjected to oxygenation reaction, the Aβ1-42 solution was incubated at 37° C. for 1 to 3 hours. The phosphate buffer containing 40 μM of Aβ was diluted with a Dulbecco's modified Eagle's medium (DMEM, Life Technologies) containing 0.1% horse serum and buffered with 25 mM of 4-(2-hydroxyethyl)-1-piperazineethanesulfonic acid (HEPES).\nSolutions of the compounds with a final concentration of 2 μM were used for evaluation of oxygenation of Aβ1-42. Solutions of the compounds with a final concentration of 5 μM were used for evaluation of peptide selectivity. Each mixture was subjected to light irradiation with an LED (wavelength: 500, 660, or 780 nm) at a distance of approximately 5 to 10 cm at room temperature. A control group without light irradiation was additionally prepared. Reaction was analyzed through monitor analysis with a MALDI-TOF MS. Degree of oxygenation was determined as a ratio: degree of oxygenation (%)=(total of MS intensities for n[O] adducts)/(MS intensity for native+total of MS intensities for n[O] adducts)×100. Aliquots of each reaction solution were desalted with a ZipTip U-C18 (Merck Millipore), as necessary, before mass spectrometry.\na: A phosphate buffer (pH 7.4) solution containing pre-aggregated Aβ1-42 (20 μM, incubated at 37° C. for 3 hours) and a catalyst (2 μM) was subjected to light irradiation (wavelength: 660 nm) at 37° C. for 30 minutes. Thereafter, the reaction mixture was analyzed by using a MALDI-TOF MS.\na: A phosphate buffer (pH 7.4) containing pre-aggregated Aβ1-42 (20 μM, obtained through incubation at 37° C. for 3 hours) and a catalyst (2 μM) were subjected to light irradiation at 780 nm (14 mW) at 37° C. for 30 minutes. The reaction mixture was analyzed by using a MALDI-TOF MS."}, "PC 12 cells [6]": {"test_system": "PC 12 cells", "assay_type": "cell-based", "conditions": "5 minutes then 48 hours, n=5, mean±SEM, Table 1", "experimental": "Rat pheochromocytoma PC 12 cells were suspended with DMEM containing 5% horse serum and 10% fetal bovine serum, seeded in a poly-D-lysine-coated 96-well plate at a concentration of 10,000 cells per well, and incubated in a 5% carbon dioxide atmosphere at 37° C. for 3 days. After the solvent was removed, the cells were washed with 150 μL of serum-free DMEM, and DMEM (75 μL) containing 0.1% horse serum was added thereto. Thereafter, the 96-well plate was incubated in a 5% carbon dioxide atmosphere at 37° C. for 1 day for use in oxygenation reaction. In oxygenation reaction, the compound E (100 μM dimethyl sulfoxide solution) was added to a phosphate buffer saline containing Aβ (aggregated in advance for 3 hours, 40 μM) and 25 μL of the above cell solution (final concentration of Aβ: 10 μM, final concentration of compound E: 1 μM). The mixture was irradiated with an LED (wavelength: 780 nm) at a distance of approximately 5 cm at 37° C. for 5 minutes. The cells were incubated in a 5% carbon dioxide atmosphere at 37° C. for 48 hours. The cell viability was measured by using the Cell Count Reagent SF (NACALAI TESQUE, INC., Kyoto, Japan) with WST-8 (2-(2-methoxy-4-nitrophenyl)-3-(4-nitrophenyl)-5-(2,4-disulfophenyl)-2H-tetrazolium).\nb: LC50 (dark) indicates the toxicity of a compound itself, and LC50 (light) indicates the phototoxicity of a compound. The PC 12 cells were placed in dark or subjected to photocatalytic treatment under light irradiation (wavelength: 660 nm), and incubated at 37° C. for 5 minutes, and then in a 5% carbon dioxide atmosphere at 37° C. for 48 hours, for which the cell viability was analyzed (n=5, mean±SEM).\nb: The PC 12 cells were treated together with a photocatalyst (1 μM) at 37° C. for 5 minutes in dark or under light irradiation (wavelength: 780 nm), and thereafter the cell viability was analyzed (n=3, mean±SEM)."}, "[7]": {"assay": "Maximum wavelength λmax of photocatalysts", "assay_type": "physicochemical", "conditions": "Table 1"}}, "note": "Entries after “also recorded” stand apart in the source; their conditions may differ. Like-named read-outs stand apart in the source and are kept apart here.", "data": [{"compound": "CN(C)c1ccc(/C=C/C2=C(Br)C(/C=C/c3ccc4c(c3)CCCN4CCCCCC(=O)O)=[O+][B-](F)(C(F)(F)F)O2)cc1", "note": "(centres unmarked) [Compound K]", "values": [{"measurement": "oxygenation of Aβ1-42 under light irradiation", "setting": "Aβ1-42 [1]", "value": "oxygenation of the Aβ proceeded"}, {"measurement": "toxicity under light irradiation (ranking)", "setting": "PC 12 cells [2]", "value": "higher in the order of the compound J, the compound K, and the compound L; also recorded: iodine provides more reduced toxicity than in the case of bromine"}, {"measurement": "benzoylmethionine/oxygenated form ratio (%)", "setting": "[3]", "value": "higher as the concentration of glycerol, which has high viscosity, was higher"}, {"measurement": "stability of catalyst (ranking)", "setting": "[4]", "value": "higher in the order of BFCF3 (compound K)<BFCF2CF3 (compound J)"}, {"measurement": "Degree of oxygenation (%) of Aβ42 (λ = 660 nm)", "setting": "Aβ1-42 [5]", "value": 86, "unit": "%"}, {"measurement": "CC50", "setting": "PC 12 cells [6]; PC 12 cells in dark, read-out: LC50 (dark)", "value": 1890, "unit": "nM"}, {"measurement": "CC50", "setting": "PC 12 cells [6]; PC 12 cells, light irradiation 660 nm, read-out: LC50 (light)", "value": 143, "unit": "nM"}, {"measurement": "Maximum wavelength λmax (nm)", "setting": "[7]", "value": 620, "unit": "nm"}]}]}
